Measurements as given in BindingDB's records for doi:10.1021/acs.jmedchem.8b01602 (2018).

Columns and labels:
[1] = Inhibition of mouse GAT3 expressed in HEK293 cells assessed as reduction in [3H]GABA uptake preincubated for 25 mins followed by [3H]GABA addition and measured after 4 mins by liquid scintillation counting method
[2] = Inhibition of mouse GAT2 expressed in HEK293 cells assessed as reduction in [3H]GABA uptake preincubated for 25 mins followed by [3H]GABA addition and measured after 10 mins by liquid scintillation counting method
[3] = Non-competitive inhibition of human GAT1 expressed in COS cells assessed as reduction in [2H6]GABA uptake by measuring [2H6]GABA Kd(app) at 10 uM preincubated for 25 mins followed by [2H6]GABA addition and measured after 4 mins by liquid scintillation counting method (Rvb = 28.3 +/- 1.5 nM)
[4] = Non-competitive inhibition of human GAT1 expressed in COS cells assessed as reduction in [2H6]GABA uptake by measuring [2H6]GABA Kd(app) at 1 uM preincubated for 25 mins followed by [2H6]GABA addition and measured after 4 mins by liquid scintillation counting method (Rvb = 28.3 +/- 1.5 nM)

SMILES	IC50 [1]	IC50 [2]	Kd [3]	Kd [4]
O=C(O)[C@H]1CNC[C@@H](CCN/N=C/c2ccc(-c3ccc(Cl)cc3Cl)o2)C1	25.7 µM	53.7 µM	–	–
O=C(O)[C@H]1CNC[C@@H](CCN/N=C/c2ccc(-c3ccc(C(F)(F)F)cc3Cl)o2)C1	58.9 µM	53.7 µM	–	–
O=C(O)[C@H]1CNC[C@@H](CN/N=C/c2ccc(-c3cccc4ccccc34)o2)C1	33.1 µM	–	0.112 µM	0.056 µM
O=C(O)[C@H]1CNC[C@@H](CN/N=C/c2ccc(-c3cc(C(F)(F)F)cc(C(F)(F)F)c3)o2)C1	–	–	0.154 µM	0.058 µM
